Legend:
[1] = Volume of distribution at steady state in monkey after iv administration; assay type: ADME, organism-based; details: macaca, in vivo, read-out: Vdss
[2] = Volume of distribution at steady state in rat after iv administration; assay type: ADME, organism-based; details: in vivo
[3] = Clearance in dog after iv administration; assay type: ADME, organism-based, Canis lupus familiaris; details: in vivo
[4] = Clearance in monkey after iv administration; assay type: ADME, organism-based; details: macaca, in vivo
[5] = Clearance in rat after iv administration; assay type: ADME, organism-based; details: in vivo
[6] = Volume of distribution at steady state in dog after iv administration; assay type: ADME, organism-based, Canis lupus familiaris; details: in vivo, read-out: Vdss
[7] = Clearance in human after iv administration; assay type: ADME, organism-based; details: in vivo
[8] = Volume of distribution at steady state in human after iv administration; assay type: ADME, organism-based; details: in vivo, read-out: Vdss

SMILES	Vd [1]	Vdss [2]	clearance [3]	clearance [4]	clearance [5]	Vd [6]	clearance [7]	Vd [8]
NC(=O)c1cc[n+](COC[n+]2ccccc2/C=N/O)cc1 [HI-6]	0.34 L/kg	0.3 L/kg	3.7 mL/min/kg	8.6 mL/min/kg	9.8 mL/min/kg	0.26 L/kg	3.2 mL/min/kg	0.39 L/kg
O=C1NC(=O)C(c2ccccc2)(c2ccccc2)N1 [PHENYTOIN]	7.8 L/kg	0.64 L/kg	2.8 mL/min/kg	7.9 mL/min/kg	7.4 mL/min/kg	1 L/kg	0.57 mL/min/kg	1.4 L/kg
CCOC(=O)C1(c2ccccc2)CCN(C)CC1 [MEPERIDINE]	5.9 L/kg	24 L/kg	43 mL/min/kg	1 mL/min/kg	253 mL/min/kg	2.4 L/kg	17 mL/min/kg	4.4 L/kg
CCCC(CCC)C(=O)O [VALPROIC ACID]	0.15 L/kg	0.66 L/kg	3 mL/min/kg	4 mL/min/kg	4.2 mL/min/kg	0.31 L/kg	0.11 mL/min/kg	0.15 L/kg
CC#CCC(C)[C@H](O)/C=C/[C@@H]1[C@H]2C/C(=C/CCCC(=O)O)C[C@H]2C[C@H]1O (stereo not given in full) [ILOPROST]	0.9 L/kg	0.8 L/kg	67 mL/min/kg	58 mL/min/kg	32 mL/min/kg	0.9 L/kg	17 mL/min/kg	0.4 L/kg
CO[C@@]1(NC(=O)C(C(=O)[O-])c2ccc(O)cc2)C(=O)N2C(C(=O)[O-])=C(CSc3nnnn3C)CO[C@@H]21.[Na+].[Na+] (stereo not given in full) [MOXALACTAM DISODIUM]	0.16 L/kg	0.28 L/kg	2.2 mL/min/kg	2 mL/min/kg	9.4 mL/min/kg	0.2 L/kg	1.2 mL/min/kg	0.27 L/kg
CC(=N)N1CC[C@H](SC2=C(C(=O)O)N3C(=O)[C@H]([C@@H](C)O)[C@H]3C2)C1	0.3 L/kg	0.19 L/kg	4.9 mL/min/kg	6.5 mL/min/kg	28 mL/min/kg	0.22 L/kg	3.1 mL/min/kg	0.18 L/kg
CC[C@]1(O)C[C@H]2CN(CCc3c([nH]c4ccccc34)[C@@](C(=O)OC)(c3cc4c(cc3OC)N(C=O)[C@H]3[C@@](O)(C(=O)OC)[C@H](OC(C)=O)[C@]5(CC)C=CCN6CC[C@]43[C@@H]65)C2)C1 [VINCRISTINE]	1.3 L/kg	0.41 L/kg	9.8 mL/min/kg	4.8 mL/min/kg	2 mL/min/kg	3.1 L/kg	1.8 mL/min/kg	8 L/kg
O=C(O)C[C@H](NC(=O)CP(=O)(O)O)C(=O)O [PALA]	0.35 L/kg	4.5 L/kg	7 mL/min/kg	3.7 mL/min/kg	53 mL/min/kg	0.6 L/kg	0.8 mL/min/kg	0.35 L/kg
c1ccc(C2(N3CCCCC3)CCCCC2)cc1 [PHENCYCLIDINE]	7.3 L/kg	23 L/kg	50 mL/min/kg	37 mL/min/kg	122 mL/min/kg	17 L/kg	4.9 mL/min/kg	6.2 L/kg
O=C(O)Cc1ccccc1Nc1c(Cl)cccc1Cl [DICLOFENAC]	0.17 L/kg	0.75 L/kg	1.6 mL/min/kg	8.7 mL/min/kg	9.4 mL/min/kg	0.23 L/kg	4.2 mL/min/kg	0.17 L/kg
C#C[C@]1(O)CC[C@H]2[C@@H]3CCc4cc(O)ccc4[C@H]3CC[C@@]21C [ETHINYL ESTRADIOL]	6 L/kg	73 L/kg	25 mL/min/kg	17 mL/min/kg	64 mL/min/kg	17 L/kg	5 mL/min/kg	18 L/kg
Cc1cc(O)c(C(=O)N[C@@H](C(=O)N[C@@H]2C(=O)N3C(C(=O)O)=C(CSc4nnnn4C)CS[C@H]23)c2ccc(O)cc2)cn1 [CEFPIRAMIDE]	0.1 L/kg	0.26 L/kg	5.1 mL/min/kg	0.52 mL/min/kg	9.5 mL/min/kg	0.45 L/kg	0.28 mL/min/kg	0.11 L/kg
CO/N=C(\C(=O)N[C@@H]1C(=O)N2C(C(=O)[O-])=C(C[N+]34CCC(C(N)=O)(CC3)CC4)CS[C@H]12)c1nsc(N)n1 [CEFCLIDIN]	0.28 L/kg	0.22 L/kg	3.6 mL/min/kg	3.4 mL/min/kg	8.8 mL/min/kg	0.23 L/kg	1.5 mL/min/kg	0.17 L/kg
CO[C@@]1(NC(=O)C2SC(=C(C(N)=O)C(=O)O)S2)C(=O)N2C(C(=O)O)=C(CSc3nnnn3C)CS[C@@H]21 (stereo not given in full) [CEFOTETAN]	0.17 L/kg	0.25 L/kg	4 mL/min/kg	1.7 mL/min/kg	13 mL/min/kg	0.25 L/kg	0.5 mL/min/kg	0.13 L/kg
